Broadly, the pIC50 is the IC50 on a negative log10 scale, so that one unit is a factor of ten.

For one test, the system named is MV-4-11 cells. The experiment in a line: Anti-proliferative activity on MV-4-11 cells (CellTiter-Lumi, 72 h). It counts as cell-based. Particulars: Homo sapiens, MV4-11, 72 h, read-out: Cell anti-proliferative activity IC50 MV-4-11. On the procedure: MV-4-11 cells were seeded into a 384-well plate (Fisher 142762) at 3000 cells per well. The next day, serially diluted compounds were added, and 72 h after the addition, CellTiter-Lumi (Beyotime C0068XL) was added to measure the ATP content in the cells. The growth of the cells was evaluated, and IC50 of the compounds against cell growth was calculated.

The next test addresses DHODH (Homo sapiens, UniProt Q02127). As to the kind of experiment: Assay against enzyme activity of DHODH (DCIP absorption at 600 nm). It counts as biochemical. On the procedure:
The enzyme activity of DHODH was assayed through a cascade reaction to determine its ability to catalyze the oxidation of a natural substrate DHO (dihydroorotic acid) to orotic acid while reducing coenzyme Q. The enzyme activity of DHODH was indirectly detected by assaying the ability of the coenzyme Q to reduce a chromogenic substrate DCIP. After the compound and an enzyme reaction mixture were incubated for 5 min, a reaction substrate DHO was added to start the reaction, and the enzyme activity was assayed by assaying the absorption at 600 nm to detect the DCIP exhaustion in a timed manner.

Molecules are shown by their SMILES. pIC50: −log10 of the molar value. Like-named read-outs stand apart in the source and are kept apart here. A value given as a limit tells only on which side of the number the result lay.

DHODH, sequence (Q02127 whole entry): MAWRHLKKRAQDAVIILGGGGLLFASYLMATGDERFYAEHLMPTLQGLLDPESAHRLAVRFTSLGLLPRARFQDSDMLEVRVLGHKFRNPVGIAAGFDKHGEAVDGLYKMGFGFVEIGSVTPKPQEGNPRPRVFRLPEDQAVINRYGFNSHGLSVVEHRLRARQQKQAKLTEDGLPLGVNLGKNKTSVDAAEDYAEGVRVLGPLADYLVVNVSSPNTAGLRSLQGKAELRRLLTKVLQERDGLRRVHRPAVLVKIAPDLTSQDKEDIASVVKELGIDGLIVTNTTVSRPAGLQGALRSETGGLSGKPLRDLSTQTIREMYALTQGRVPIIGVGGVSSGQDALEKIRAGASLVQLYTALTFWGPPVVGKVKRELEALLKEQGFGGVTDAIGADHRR

As to `C[C@H](Oc1cc(-n2nc3n(c2=O)CCC2(CC2)C3)c(F)cc1C(=O)Nc1ccccc1F)C(F)(F)F` [Compound 2], the pIC50 with MV-4-11 cells is 8.34.
On to `C[C@H](Oc1cc(-n2nc3n(c2=O)CCC2(CC2)C3)c(F)cc1C(=O)Nc1ccccc1C(F)(F)F)C(F)(F)F` [Compound 3], for which the pIC50 is above 7.30 against DHODH and 8.26 in the test with MV-4-11 cells.
Regarding `C[C@H](Oc1cc(-n2nc3n(c2=O)CCC2(CC2)C3)c(F)cc1C(=O)Nc1ccccc1C(F)F)C(F)(F)F` [Compound 4], the figures for the pIC50 on DHODH and in the test on MV-4-11 cells (class symbols) were above 7.30 and at least 7.30, respectively.
As to `Cc1ccccc1NC(=O)c1cc(F)c(-n2nc3n(c2=O)CCC2(CC2)C3)cc1O[C@@H](C)C(F)(F)F` [Compound 5], the figures for the pIC50 against DHODH and with MV-4-11 cells (class symbols) were above 7.30 and at least 7.30, respectively.
On to `CCc1ccccc1NC(=O)c1cc(F)c(-n2nc3n(c2=O)CCC2(CC2)C3)cc1O[C@@H](C)C(F)(F)F` [Compound 6], for which the pIC50 against DHODH was above 7.30; in the test on MV-4-11 cells (class symbols) it was at least 7.30.
On to `Cc1cccc(NC(=O)c2cc(F)c(-n3nc4n(c3=O)CCC3(CC3)C4)cc2O[C@@H](C)C(F)(F)F)c1` [Compound 7], for which the pIC50 at DHODH is above 7.30; with MV-4-11 cells (class symbols) it was at least 7.30.
The matching figures for `C[C@H](Oc1cc(-n2nc3n(c2=O)CCC2(CC2)C3)c(F)cc1C(=O)Nc1cccc(Cl)c1)C(F)(F)F` [Compound 8]: above 7.30 and at least 7.30.
For `C[C@H](Oc1cc(-n2nc3n(c2=O)CCC2(CC2)C3)c(F)cc1C(=O)Nc1cccc(F)c1)C(F)(F)F` [Compound 9], the figures for the pIC50 on DHODH and with MV-4-11 cells (class symbols) were above 7.30 and at least 7.30, respectively.
With `C[C@H](Oc1cc(-n2nc3n(c2=O)CCC2(CC2)C3)c(F)cc1C(=O)Nc1c(F)cccc1F)C(F)(F)F` [Compound 10], the pIC50 in the test on MV-4-11 cells is 8.65.
As to `Cc1cccc(F)c1NC(=O)c1cc(F)c(-n2nc3n(c2=O)CCC2(CC2)C3)cc1O[C@@H](C)C(F)(F)F` [Compound 11], in the test on MV-4-11 cells, the pIC50 is 8.67.
Regarding `Cc1cccc(Cl)c1NC(=O)c1cc(F)c(-n2nc3n(c2=O)CCC2(CC2)C3)cc1O[C@@H](C)C(F)(F)F` [Compound 12], the figures for the negative-log IC50 (pIC50) at DHODH and in the test on MV-4-11 cells were above 7.30 and 8.84, respectively.
Regarding `C[C@H](Oc1cc(-n2nc3n(c2=O)CCC2(CC2)C3)c(F)cc1C(=O)Nc1c(Cl)cccc1Cl)C(F)(F)F` [Compound 13], the pIC50 against DHODH was above 7.30; in the test on MV-4-11 cells it was 8.81.
Take `C[C@H](Oc1cc(-n2nc3n(c2=O)CCC2(CC2)C3)c(F)cc1C(=O)Nc1c(F)cccc1C(F)(F)F)C(F)(F)F` [Compound 14]: the negative logarithm of the IC50 (pIC50) on DHODH was above 7.30; in the test with MV-4-11 cells (class symbols), at least 7.30.
On to `COc1cccc(C)c1NC(=O)c1cc(F)c(-n2nc3n(c2=O)CCC2(CC2)C3)cc1O[C@@H](C)C(F)(F)F` [Compound 15], for which, in the test on MV-4-11 cells, the pIC50 is 8.47.
Regarding `Cc1cccc(C(F)(F)F)c1NC(=O)c1cc(F)c(-n2nc3n(c2=O)CCC2(CC2)C3)cc1O[C@@H](C)C(F)(F)F` [Compound 16], the figures for the pIC50 against DHODH and in the test with MV-4-11 cells (class symbols) were above 7.30 and at least 7.30, respectively.
For the compound `Cc1cccc(N)c1NC(=O)c1cc(F)c(-n2nc3n(c2=O)CCC2(CC2)C3)cc1O[C@@H](C)C(F)(F)F` [Compound 17], the pIC50 in the test with MV-4-11 cells (class symbols) was at least 7.30.
Take `COc1cccc(C)c1NC(=O)c1cc(F)c(-n2nc3n(c2=O)CCC2(CC2)C3)cc1O[C@@H](C)C(F)(F)F` [Compound 18]: in the test on MV-4-11 cells (class symbols), the pIC50 was at least 7.30.
On to `Cc1ccc(F)c(NC(=O)c2cc(F)c(-n3nc4n(c3=O)CCC3(CC3)C4)cc2O[C@@H](C)C(F)(F)F)c1` [Compound 19], for which the negative-log IC50 (pIC50) against DHODH is above 7.30; with MV-4-11 cells (class symbols), at least 7.30.
Turning to `C[C@H](Oc1cc(-n2nc3n(c2=O)CCC2(CC2)C3)c(F)cc1C(=O)Nc1cc(Cl)ccc1F)C(F)(F)F` [Compound 20], the negative logarithm of the IC50 (pIC50) was above 7.30 at DHODH and at least 7.30 in the test with MV-4-11 cells (class symbols).
For `C[C@H](Oc1cc(-n2nc3n(c2=O)CCC2(CC2)C3)c(F)cc1C(=O)Nc1ccc(F)cc1Cl)C(F)(F)F` [Compound 21] the same measures were above 7.30 and at least 7.30.
The matching figures for `Cc1cc(F)ccc1NC(=O)c1cc(F)c(-n2nc3n(c2=O)CCC2(CC2)C3)cc1O[C@@H](C)C(F)(F)F` [Compound 22]: above 7.30 and at least 7.30.
As to `Cc1c(F)cccc1NC(=O)c1cc(F)c(-n2nc3n(c2=O)CCC2(CC2)C3)cc1O[C@@H](C)C(F)(F)F` [Compound 23], the pIC50 on DHODH is above 7.30; in the test on MV-4-11 cells (class symbols), at least 7.30.
For `Cc1c(Cl)cccc1NC(=O)c1cc(F)c(-n2nc3n(c2=O)CCC2(CC2)C3)cc1O[C@@H](C)C(F)(F)F` [Compound 24] the same measures were above 7.30 and at least 7.30.
For `Cc1cc(N)ccc1NC(=O)c1cc(F)c(-n2nc3n(c2=O)CCC2(CC2)C3)cc1O[C@@H](C)C(F)(F)F` [Compound 25] the same measures were above 7.30 and at least 7.30.
On to `C[C@H](Oc1cc(-n2nc3n(c2=O)CCC2(CC2)C3)c(F)cc1C(=O)Nc1ccc(N)cc1C(F)(F)F)C(F)(F)F` [Compound 26], for which the pIC50 is above 7.30 against DHODH and at least 7.30 in the test on MV-4-11 cells (class symbols).
With `C[C@H](Oc1cc(-n2nc3n(c2=O)CCC2(CC2)C3)c(F)cc1C(=O)Nc1c(F)cc(F)cc1Cl)C(F)(F)F` [Compound 27], the figures for the negative logarithm of the IC50 (pIC50) on DHODH and in the test with MV-4-11 cells (class symbols) were above 7.30 and at least 7.30, respectively.
For `C[C@H](Oc1cc(-n2nc3n(c2=O)CCC2(CC2)C3)c(F)cc1C(=O)Nc1c(Cl)cc(F)cc1Cl)C(F)(F)F` [Compound 28] the same measures were above 7.30 and at least 7.30.
For `Cc1cc(F)cc(Cl)c1NC(=O)c1cc(F)c(-n2nc3n(c2=O)CCC2(CC2)C3)cc1O[C@@H](C)C(F)(F)F` [Compound 29] the same measures were above 7.30 and at least 7.30.
For the compound `COc1cc(F)c(NC(=O)c2cc(F)c(-n3nc4n(c3=O)CCC3(CC3)C4)cc2O[C@@H](C)C(F)(F)F)c(F)c1` [Compound 30], the pIC50 on DHODH was above 7.30; in the test with MV-4-11 cells (class symbols) it was at least 7.30.
With `C[C@H](Oc1cc(-n2nc3n(c2=O)CCC2(CC2)C3)c(F)cc1C(=O)Nc1c(Cl)ccc(F)c1F)C(F)(F)F` [Compound 31], the pIC50 at DHODH is above 7.30; with MV-4-11 cells (class symbols), at least 7.30.
As to `Cc1ccc(Cl)c(NC(=O)c2cc(F)c(-n3nc4n(c3=O)CCC3(CC3)C4)cc2O[C@@H](C)C(F)(F)F)c1C` [Compound 32], the negative-log IC50 (pIC50) against DHODH was above 7.30; in the test with MV-4-11 cells (class symbols), at least 7.30.
For the compound `Cc1cccnc1NC(=O)c1cc(F)c(-n2nc3n(c2=O)CCC2(CC2)C3)cc1O[C@@H](C)C(F)(F)F` [Compound 33], the pIC50 on DHODH was above 7.30; in the test on MV-4-11 cells (class symbols), 6.30 to 7.30.
As to `Cc1cnccc1NC(=O)c1cc(F)c(-n2nc3n(c2=O)CCC2(CC2)C3)cc1O[C@@H](C)C(F)(F)F` [Compound 34], the pIC50 is above 7.30 at DHODH and 7.99 in the test on MV-4-11 cells.
For `COc1ccnc(C)c1NC(=O)c1cc(F)c(-n2nc3n(c2=O)CCC2(CC2)C3)cc1O[C@@H](C)C(F)(F)F` [Compound 35], the pIC50 was above 7.30 against DHODH and 8.17 in the test on MV-4-11 cells.
As for `Cc1ccnc(Cl)c1NC(=O)c1cc(F)c(-n2nc3n(c2=O)CCC2(CC2)C3)cc1O[C@@H](C)C(F)(F)F` [Compound 36], the pIC50 was above 7.30 at DHODH and 7.90 with MV-4-11 cells.
With `COc1nccc(Cl)c1NC(=O)c1cc(F)c(-n2nc3n(c2=O)CCC2(CC2)C3)cc1O[C@@H](C)C(F)(F)F` [Compound 37], the figures for the negative-log IC50 (pIC50) on DHODH and with MV-4-11 cells were above 7.30 and 7.98, respectively.
For the compound `Cc1n[nH]c(C)c1NC(=O)c1cc(F)c(-n2nc3n(c2=O)CCC2(CC2)C3)cc1O[C@@H](C)C(F)(F)F` [Compound 38], the figures for the negative logarithm of the IC50 (pIC50) against DHODH and with MV-4-11 cells were above 7.30 and 7.67, respectively.
With `Cc1n[nH]c(Cl)c1NC(=O)c1cc(F)c(-n2nc3n(c2=O)CCC2(CC2)C3)cc1O[C@@H](C)C(F)(F)F` [Compound 39], the pIC50 against DHODH was above 7.30; in the test on MV-4-11 cells it was 7.18.
With `CC(C)Oc1cc(-n2nc3n(c2=O)CCC2(CC2)C3)c(F)cc1C(=O)Nc1c(F)cccc1Cl` [Compound 40], the negative-log IC50 (pIC50) was above 7.30 against DHODH and at least 7.30 with MV-4-11 cells (class symbols).
The matching figures for `CC[C@H](C)Oc1cc(-n2nc3n(c2=O)CCC2(CC2)C3)c(F)cc1C(=O)Nc1c(F)cccc1Cl` [Compound 41]: above 7.30 and at least 7.30.
Consider `CCC[C@H](C)Oc1cc(-n2nc3n(c2=O)CCC2(CC2)C3)c(F)cc1C(=O)Nc1c(F)cccc1Cl` [Compound 42], for which the pIC50 is above 7.30 against DHODH and at least 7.30 in the test on MV-4-11 cells (class symbols).
With `CC(C)[C@H](C)Oc1cc(-n2nc3n(c2=O)CCC2(CC2)C3)c(F)cc1C(=O)Nc1c(F)cccc1Cl` [Compound 43], the pIC50 against DHODH is above 7.30; with MV-4-11 cells (class symbols), at least 7.30.
As for `C[C@H](Oc1cc(-n2nc3n(c2=O)CCC2(CC2)C3)c(F)cc1C(=O)Nc1c(F)cccc1Cl)C1CC1` [Compound 44], the values for the pIC50 on DHODH and in the test on MV-4-11 cells (class symbols) were above 7.30 and at least 7.30, respectively.
As to `C[C@H](Oc1cc(-n2nc3n(c2=O)CCC2(CC2)C3)c(F)cc1C(=O)Nc1c(F)cccc1Cl)C1CCC1` [Compound 45], the figures for the pIC50 against DHODH and in the test on MV-4-11 cells (class symbols) were above 7.30 and at least 7.30, respectively.
As to `C[C@H](Oc1cc(-n2nc3n(c2=O)CCC2(CC2)C3)c(F)cc1C(=O)Nc1c(F)cccc1Cl)C1CCCC1` [Compound 46], the pIC50 against DHODH was above 7.30; with MV-4-11 cells (class symbols), at least 7.30.
For `C[C@H](Oc1cc(-n2nc3n(c2=O)CCC2(CC2)C3)c(F)cc1C(=O)Nc1c(F)cccc1Cl)C1CCCCC1` [Compound 47] the same measures were above 7.30 and at least 7.30.
Consider `C[C@H](Oc1cc(-n2nc3n(c2=O)CC2(CC2)C3)c(F)cc1C(=O)Nc1c(F)cccc1Cl)C(F)(F)F` [Compound 48], for which the pIC50 on DHODH is above 7.30; in the test with MV-4-11 cells, 7.97.

Source of the values: patent US12577250B2, “1,2,4-triazolone derivative as DHODH inhibitor, and preparation method therefor and use thereof” (WIGEN BIOMEDICINE TECHNOLOGY (SHANGHAI) CO., LTD., priority 2021, dated 2026).
